From patent US10743540B2, “3-amino-1,2,4-triazine derivatives and their use for controlling undesired plant growth” (BAYER CROPSCIENCE AKTIENGESELLSCHAFT, priority 2016, dated 2020)

How the values were obtained:
Type in all cases: in vivo
[1] = test system: ALOMY: Alopecurus myosuroides; assay: Pre-emergence herbicidal effect; details: application rate 320 g/ha, scored visually after 3 weeks, 100% = plants have died, 0% = like control plants
Text: (§1) 1. Pre-Emergence Herbicidal Effect and Crop Plant Compatibility Seeds of monocotyledonous and dicotyledonous weed plants and crop plants are laid out in sandy loam soil in wood-fiber pots and covered with soil. The compounds of the invention, formulated in the form of wettable powders (WP) or as emulsion concentrates (EC), are then applied to the surface of the covering soil as aqueous suspension or emulsion at a water application rate equating to 600 to 800 L/ha with addition of 0.2% wetting agent. After the treatment, the pots are placed in a greenhouse and kept under good growth conditions for the trial plants. The damage to the test plants is scored visually after a test period of 3 weeks by comparison with untreated controls (herbicidal activity in percent (%): 100% activity=the plants have died, 0% activity=like control plants). [table]

[2] = test system: LOLMU: Lolium multiflorum; assay: Pre-emergence herbicidal effect; details: application rate 320 g/ha, scored visually after 3 weeks, 100% = plants have died, 0% = like control plants
Text: as §1

SETVI: Setaria viridis = assay: Pre-emergence herbicidal effect; details: application rate 320 g/ha, scored visually after 3 weeks, 100% = plants have died, 0% = like control plants
Text: as §1

[3] = test system: MATIN: Matricaria inodora; assay: Pre-emergence herbicidal effect; details: application rate 320 g/ha, scored visually after 3 weeks, 100% = plants have died, 0% = like control plants
Text: as §1

VERPE: Veronica persica [4] = assay: Pre-emergence herbicidal effect; details: application rate 320 g/ha, scored visually after 3 weeks, 100% = plants have died, 0% = like control plants
Text: as §1

STEME: Stellaria media [5] = assay: Pre-emergence herbicidal effect; details: application rate 320 g/ha, scored visually after 3 weeks, 100% = plants have died, 0% = like control plants
Text: as §1

[6] = test system: ECHCG: Echinochloa crus-galli; assay: Pre-emergence herbicidal effect; details: application rate 320 g/ha, scored visually after 3 weeks, 100% = plants have died, 0% = like control plants
Text: as §1

[7] = test system: POLCO: Polygonum convolvulus; assay: Pre-emergence herbicidal effect; details: application rate 320 g/ha, scored visually after 3 weeks, 100% = plants have died, 0% = like control plants
Text: as §1

VERPE: Veronica persica [8] = assay: Post-emergence herbicidal effect; details: application rate 320 g/ha, treated at one-leaf stage, assessed visually after about 3 weeks, 100% = plants have died
Experimental: (§2) [table] 2. Post-Emergence Herbicidal Effect and Crop Plant Compatibility Seeds of monocotyledonous and dicotyledonous weed and crop plants are laid out in sandy loam soil in wood-fiber pots, covered with soil and cultivated in a greenhouse under good growth conditions. 2 to 3 weeks after sowing, the test plants are treated at the one-leaf stage. The compounds of the invention, formulated in the form of wettable powders (WP) or as emulsion concentrates (EC), are then sprayed onto the green parts of the plants as aqueous suspension or emulsion at a water application rate equating to 600 to 800 L/ha with addition of 0.2% wetting agent. After the test plants have been left to stand in the greenhouse under optimal growth conditions for about 3 weeks, the action of the preparations is assessed visually in comparison to untreated controls (herbicidal action in percent (%): 100% activity=the plants have died, 0% activity=like control plants).

STEME: Stellaria media [9] = assay: Post-emergence herbicidal effect; details: application rate 320 g/ha, treated at one-leaf stage, assessed visually after about 3 weeks, 100% = plants have died
Experimental: as §2

[10] = test system: AMARE: Amaranthus retroflexus; assay: Post-emergence herbicidal effect; details: application rate 320 g/ha, treated at one-leaf stage, assessed visually after about 3 weeks, 100% = plants have died
Experimental: as §2

VIOTR: Viola tricolor = assay: Post-emergence herbicidal effect; details: application rate 320 g/ha, treated at one-leaf stage, assessed visually after about 3 weeks, 100% = plants have died
Experimental: as §2

[11] = test system: ABUTH: Abutilon theophrasti; assay: Pre-emergence herbicidal effect; details: application rate 320 g/ha, scored visually after 3 weeks, 100% = plants have died, 0% = like control plants
Text: as §1

Structure (SMILES) | Herbicidal activity with respect to [%] ALOMY [1] [%] | Herbicidal activity with respect to [%] LOLMU [2] [%] | Herbicidal activity with respect to [%] SETVI (SETVI: Setaria viridis) [%] | Herbicidal activity with respect to [%] MATIN [3] [%] | Herbicidal activity with respect to [%] VERPE (VERPE: Veronica persica [4]) [%] | Herbicidal activity with respect to [%] STEME (STEME: Stellaria media [5]) [%] | Herbicidal activity with respect to [%] ECHCG [6] [%] | Herbicidal activity with respect to [%] POLCO [7] [%] | Herbicidal activity with respect to [%] VERPE (VERPE: Veronica persica [8]) [%] | Herbicidal activity with respect to [%] STEME (STEME: Stellaria media [9]) [%] | Herbicidal activity with respect to [%] AMARE [10] [%] | Herbicidal activity with respect to [%] VIOTR (VIOTR: Viola tricolor) [%] | Herbicidal activity with respect to [%] ABUTH [11] [%]
Nc1nc(NC2CCCc3cc(F)ccc32)nnc1C(F)(F)F (racemic) [Example 1.46] | 90 | 90 | 100 | 100 | 100 | 100 | 100 | 100 | 80 | 100 | – | – | –
N#Cc1nnc(NC2CCOc3ccccc32)nc1N (racemic) [Example 1.60] | – | – | – | – | 100 | 100 | – | – | 100 | 90 | 80 | – | –
N#Cc1nnc(NC2CCOc3ccc(F)cc32)nc1N (racemic) [Example 1.64] | – | – | 100 | 90 | 100 | 100 | 100 | 100 | 100 | 90 | 100 | 80 | –
Nc1nc(N[C@@H]2CCCc3ccccc32)nnc1Cl [Example 1.4] | 100 | 100 | 100 | 100 | 100 | 100 | 100 | 100 | 90 | 90 | 90 | 80 | –
Cc1ccc2c(c1)[C@H](Nc1nnc(C(F)(F)F)c(N)n1)CC2 [Example 1.31] | 100 | 100 | 100 | 100 | 100 | 100 | 100 | 100 | – | 90 | – | – | –
CCOC(=O)c1nnc(N[C@@H]2CCCc3ccccc32)nc1N [Example 1.32, Ethyl 5-amino-3-[(1R)-1,2,3,4-tetrahydronaphthalen-1-ylamino]-1,2,4-triazine-6-carboxylate] | – | – | 90 | 100 | 100 | 100 | 100 | – | 80 | 80 | 80 | – | –
N#Cc1nnc(N[C@@H]2CCCc3ccccc32)nc1N [Example 1.37] | 100 | 100 | 100 | 100 | 100 | 100 | 100 | 100 | 100 | 100 | – | – | –
Cc1ccc2c(c1)[C@H](Nc1nnc(C(=O)NC(C)C)c(N)n1)[C@@H](C)C2 [Example 1.39] | 80 | – | 100 | 100 | 100 | 100 | 90 | 80 | 100 | 80 | – | 90 | –
Cc1ccc2c(c1)[C@H](Nc1nnc(C(=O)N(C)C)c(N)n1)[C@@H](C)C2 [Example 1.40] | 100 | 100 | 100 | 100 | 100 | 100 | 100 | 100 | 100 | – | – | 80 | 90
CNC(=O)c1nnc(N[C@H]2c3cc(C)ccc3C[C@@H]2C)nc1N [Example 1.41] | 100 | 100 | 100 | 100 | 100 | 100 | 100 | 100 | 100 | – | 80 | 80 | –
Nc1nc(N[C@@H]2CCc3ccccc32)nnc1Cl [Example 1.59] | – | 90 | 80 | – | 100 | 100 | 80 | 80 | 80 | 100 | – | – | –
C[S+]([O-])c1nnc(N[C@@H]2CCCc3ccccc32)nc1N (stereo partly drawn) [Example 1.65] | – | 100 | 100 | 100 | 100 | 100 | 100 | 100 | 80 | 100 | – | 80 | 90
CS(=O)(=O)c1nnc(N[C@@H]2CCCc3ccccc32)nc1N [Example 1.66] | 80 | 100 | 100 | 100 | 100 | 100 | 100 | 100 | 100 | 100 | – | 90 | 100
Cc1ccc2c(c1)[C@H](Nc1nnc(C(=O)N(C)C)c(N)n1)CC2 [Example 1.77] | 100 | – | 100 | 100 | – | – | 100 | 100 | – | 100 | – | 90 | 90
